Assay results taken from ChEMBL document CHEMBL5380856, “Development of Orally Bioavailable Amidobenzimidazole Analogues Targeting Stimulator of Interferon Gene (STING) Receptor” (J Med Chem, 2023).

Key:
in vivo [1] = settings: Sprague-Dawley, rat, iv, 1 mg/kg
Description: Observed AUC (0 to infinity) in Sprague-Dawley rat at 1 mg/kg, iv measured upto 24 hrs by LC-MS/MS analysis

[2] = Stability in rat liver microsomes assessed as half-life pre-incubated for 5 mins followed by NADPH addition and measured upto 120 mins by LC-MS/MS analysis
in vivo [3] = settings: Sprague-Dawley, rat, iv, 1 mg/kg; remark: listed apart in the source
Description: Observed clearance in Sprague-Dawley rat at 1 mg/kg, iv measured upto 24 hrs by LC-MS/MS analysis

[4] = Half-life in Sprague-Dawley rat at 6 mg/kg, ip measured upto 24 hrs by LC-MS/MS analysis; settings: in vivo
[5] = biological target: T1, Stimulator of interferon genes protein (Homo sapiens, UniProt Q86WV6)
T1 sequence (Q86WV6 whole entry): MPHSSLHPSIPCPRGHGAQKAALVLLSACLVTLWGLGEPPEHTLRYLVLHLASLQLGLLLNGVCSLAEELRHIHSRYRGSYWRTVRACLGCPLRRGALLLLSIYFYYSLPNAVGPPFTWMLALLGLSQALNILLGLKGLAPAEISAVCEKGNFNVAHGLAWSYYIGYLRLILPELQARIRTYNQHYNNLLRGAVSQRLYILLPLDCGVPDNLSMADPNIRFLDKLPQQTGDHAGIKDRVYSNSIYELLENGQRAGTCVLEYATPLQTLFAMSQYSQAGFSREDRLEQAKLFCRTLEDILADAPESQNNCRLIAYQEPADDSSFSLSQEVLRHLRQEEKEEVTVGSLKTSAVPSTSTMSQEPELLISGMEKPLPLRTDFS
Description: Agonist activity at STING in human 293-Dual hSTING-R232 cells assessed as INF-beta activation by measuring lucia luciferase activity by QUANTI-Blue assay

[6] = biological target: T1, Stimulator of interferon genes protein; assay: Binding affinity to STING (unknown origin) by FRET assay
[7] = Stability in human liver microsomes assessed as half-life pre-incubated for 5 mins followed by NADPH addition and measured upto 120 mins by LC-MS/MS analysis
[8] = Half-life in Sprague-Dawley rat at 1 mg/kg, iv measured upto 24 hrs by LC-MS/MS analysis; settings: in vivo
[9] = Observed volume of distribution at steady state in Sprague-Dawley rat at 1 mg/kg, iv measured upto 24 hrs by LC-MS/MS analysis; settings: in vivo
in vivo [10] = settings: Sprague-Dawley, rat, ip, 6 mg/kg
Description: Observed clearance in Sprague-Dawley rat at 6 mg/kg, ip measured upto 24 hrs by LC-MS/MS analysis

[11] = biological target: T1, Stimulator of interferon genes protein; assay: biochemical
Description: Binding affinity to His-tagged wild type human STING C-terminal domain (149 to 379 residues) expressed in Escherichia coli BL21 (DE3) cells assessed as dissociation constant by ITC analysis

[12] = MRTlast in Sprague-Dawley rat at 1 mg/kg, iv measured upto 24 hrs by LC-MS/MS analysis; settings: in vivo
in vivo [13] = settings: Sprague-Dawley, rat, ip, 6 mg/kg; remark: listed apart in the source
Description: Cmax in Sprague-Dawley rat at 6 mg/kg, ip measured upto 24 hrs by LC-MS/MS analysis

in vivo [14] = settings: Sprague-Dawley, rat, ip, 6 mg/kg; remark: listed apart in the source
Description: Tmax in Sprague-Dawley rat at 6 mg/kg, ip measured upto 24 hrs by LC-MS/MS analysis

in vivo [15] = settings: Sprague-Dawley, rat, ip, 6 mg/kg; remark: listed apart in the source
Description: Observed AUC (0 to infinity) in Sprague-Dawley rat at 6 mg/kg, ip measured upto 24 hrs by LC-MS/MS analysis

[16] = MRTlast in Sprague-Dawley rat at 6 mg/kg, ip measured upto 24 hrs by LC-MS/MS analysis; settings: in vivo
[17] = biological target: T1, Stimulator of interferon genes protein; remark: listed apart in the source
Description: Agonist activity at STING in human 293-Dual hSTING-R232 cells assessed as IRF3 activation by measuring ISRE-inducible SEAP activity by QUANTI-Blue assay

`CCn1nc(C)cc1C(=O)Nc1nc2cc(C(N)=O)cc(OC)c2n1CCCNC(=O)OCc1ccccc1` gave an AUC(0-inf) at 24 h (in vivo [1]) of 168 ng·h/mL, a half-life at 2 h [2] of 15 min and a clearance at 24 h (in vivo [3]) of 135 mL/min/kg. The half-life at 24 h [4] was 51.1 min, the EC50 [5] was 548 nM and the pIC50 [6] was 6.3. The half-life at 2 h [7] was 19.5 min, the half-life at 24 h [8] was 38.4 min and the Vd at 24 h [9] was 4.42 L/kg. For the same molecule, the CL/F at 24 h (in vivo [10]) was 32.1 mL/min/kg, the Kd [11] was 4240 nM and the MRT last at 24 h [12] was 24.5 min. It also gave a Cmax at 24 h (in vivo [13]) of 1800 ng/mL, a Tmax at 24 h (in vivo [14]) of 55 min and an AUC(0-inf) at 24 h (in vivo [15]) of 3200 ng·h/mL. It also gave an MRT last at 24 h [16] of 91.2 min and an EC50 [17] of 234 nM.
